Source: patent US9670204B2, “Compounds and pharmaceutical compositions thereof for the treatment of inflammatory disorders” (Galapagos NV, priority 2013, dated 2017)

Experiments:
hENPP2 [1] = target: T1, hENPP2 (UniProtKB/SwissProt Q13822) (Homo sapiens (Human), UniProt Q13822); assay: hENPP2 biochemical assay, LPC as substrate; conditions: LPC (palmitoyl 16:0) as substrate
In short: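 Human ENPP2 in 50 mM Tris-HCl pH 8.5, 500 mM NaCl, 5 mM KCl, 10 mM CaCl2, 0.1% fatty-acid-free BSA, reacted 30 min at 37 °C with LPC 16:0 (150 µM solution added 1:1). Released choline measured via choline oxidase/peroxidase/TOOS/4-aminoantipyrine quinoneimine dye at 555 nm; IC50 reported.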

hENPP2 [2] = target: T1, hENPP2; assay: fluorescent hENPP2 biochemical assay, FS-3 as substrate; conditions: read-out: FS3-IC50
Method: Compound IC50 values are determined in a fluorescent hENPP2 (UniProtKB/SwissProt Sequence ref Q13822) biochemical assay using the fluorogenic autotaxin substrate FS-3 as substrate. FS-3 is a doubly labeled analog of LPC wherein the fluorophore is quenched through intramolecular energy transfer. Without hENPP2, the emission of the probe is quenched. If the substrate is hydrolyzed by hENPP2, the emission of the probe is not quenched anymore resulting in a fluorescence increase.
The enzyme is diluted in 50 mM Tris-HCl pH 8.0, 250 mM NaCl, 5 mM KCl, 1 mM MgCl2, 1 mM CaCl2, 0.1% fatty acid free BSA in a total volume of 20 μL. Enzyme mixture is added to compounds and the resulting mixture is incubated for 30 min at room temperature under shaking. The reaction is started by the addition of 20 μL of 0.75 μM FS-3 diluted in the same buffer as described above and the mixture is incubated at 30° C. for 30 min. Fluorescence is read on the Envision (Excitation 485 nm, emission 520 nm).

SMILES | IC50 (hENPP2 [1]) | IC50 (hENPP2 [2])
CCC(=O)N1CCN(c2ccc3nc(CC)c(N(C)c4nc(-c5ccc(F)cc5)cs4)n3c2)CC1 [Compound 51, 1-(4-(2-ethyl-3-((4-(4-fluorophenyl)thiazol-2-yl)(methyl)amino)imidazo[1,2-a]pyridin-6-yl)piperazin-1-yl)propan-1-one] | > 1000 nM | 0.01 to 100 nM
CCc1nc2ccc(N3CCN(C(=O)CCCO)CC3)cn2c1N(C)c1nc(-c2ccc(F)cc2)cs1 [Compound 52, 1-(4-(2-ethyl-3-((4-(4-fluorophenyl)thiazol-2-yl)(methyl)amino)imidazo[1,2-a]pyridin-6-yl)piperazin-1-yl)-4-hydroxybutan-1-one] | > 1000 nM | 0.01 to 100 nM
CCc1nc2ccc(N3CCN(S(=O)(=O)CCCCl)CC3)cn2c1N(C)c1nc(-c2ccc(F)cc2)cs1 [Compound 55, N-(6-(4-(3-chloropropylsulfonyl)piperazin-1-yl)-2-ethylimidazo[1,2-a]pyridin-3-yl)-4-(4-fluorophenyl)-N-methylthiazol-2-amine] | > 1000 nM | 0.01 to 100 nM
CCc1nc2ccc(N3CCN(S(=O)(=O)CCCN4CCCC4)CC3)cn2c1N(C)c1nc(-c2ccc(F)cc2)cs1 [Compound 57, N-(2-ethyl-6-(4-(3-(pyrrolidin-1-yl)propylsulfonyl)piperazin-1-yl)imidazo [1,2-a]pyridin-3-yl)-4-(4-fluorophenyl)-N-methylthiazol-2-amine] | > 1000 nM | 0.01 to 100 nM
CCc1nc2ccc(N3CCN(S(=O)(=O)CC(=O)OC)CC3)cn2c1N(C)c1nc(-c2ccc(F)cc2)cs1 [Compound 59, methyl 2-(4-(2-ethyl-3-((4-(4-fluorophenyl)thiazol-2-yl)(methyl)amino)imidazo[1,2-a]pyridin-6-yl)piperazin-1-ylsulfonyl)acetate] | > 1000 nM | 0.01 to 100 nM
CCc1nc2ccc(N3CCN(S(=O)(=O)CC(=O)O)CC3)cn2c1N(C)c1nc(-c2ccc(F)cc2)cs1 [Compound 60, 2-(4-(2-ethyl-3-((4-(4-fluorophenyl)thiazol-2-yl)(methyl)amino)imidazo[1,2-a]pyridin-6-yl)piperazin-1-ylsulfonyl)acetic acid] | > 1000 nM | 0.01 to 100 nM
CCc1nc2ccc(N3CCN(S(=O)(=O)CC(N)=O)CC3)cn2c1N(C)c1nc(-c2ccc(F)cc2)cs1 [Compound 61, 2-(4-(2-ethyl-3-((4-(4-fluorophenyl)thiazol-2-yl)(methyl)amino)imidazo[1,2-a]pyridin-6-yl)piperazin-1-ylsulfonyl)acetamide] | > 1000 nM | 0.01 to 100 nM

Now from value to molecule:

IC50 (hENPP2 [1]) | IC50 (hENPP2 [2]) | SMILES
> 1000 nM | 0.01 to 100 nM | CCc1nc2ccc(N3CCN(C(=O)OCCO)CC3)cn2c1N(C)c1nc(-c2ccc(F)cc2)cs1 [Compound 43, 2-hydroxyethyl 4-(2-ethyl-3-((4-(4-fluorophenyl)thiazol-2-yl)(methyl)amino)imidazo[1,2-a]pyridin-6-yl)piperazine-1-carboxylate]
> 1000 nM | 0.01 to 100 nM | CCc1nc2ccc(N3CCN(C(=O)C4CCNC4)CC3)cn2c1N(C)c1nc(-c2ccc(F)cc2)cs1 (stereo not shown) [Compound 47, (4-(2-ethyl-3-((4-(4-fluorophenyl)thiazol-2-yl)(methyl)amino)imidazo[1,2-a]pyridin-6-yl)piperazin-1-yl)(pyrrolidin-3-yl)methanone]
> 1000 nM | 0.01 to 100 nM | CCc1nc2ccc(N3CCN(C(=O)C4CCN(S(C)(=O)=O)C4)CC3)cn2c1N(C)c1nc(-c2ccc(F)cc2)cs1 (stereo not shown) [Compound 49, (4-(2-ethyl-3-((4-(4-fluorophenyl)thiazol-2-yl)(methyl)amino)imidazo[1,2-a]pyridin-6-yl)piperazin-1-yl)(1-(methylsulfonyl)pyrrolidin-3-yl) methanone]
500 to 1000 nM | 0.01 to 100 nM | CCc1nc2ccc(N3CCN(C(=O)CO)CC3)cn2c1N(C)c1nc(-c2ccc(F)cc2)cs1 [Compound 50, 1-(4-(2-ethyl-3-((4-(4-fluorophenyl)thiazol-2-yl)(methyl)amino)imidazo[1,2-a]pyridin-6-yl)piperazin-1-yl)-2-hydroxyethanone]
